Consider three compounds from patent publication US9387160B2, “Composition and method of treating skin conditions” (Johnson & Johnson Consumer Holdings France, priority 2008, dated 2016).

Series [1] in a line: Relative polarity index (RPI = log K, octanol/water partition coefficient). In kind it is physicochemical. Conditions: difference between Emollient RPI and Retinoid RPI. An excerpt:
The relative polarity index (RPI) of an emollient is well known by the one skilled in the art. The methodology for its calculation is described in the article published by Wiesher et al. 2004 Int J. Cosmetic Science. 26, 173-182. RPI can be calculated from the octanol/water partition coefficient (K) with: RPI=log K. Partition coefficient estimations K have been published, for example in: • Leo A, Hansch C, and Elkins D (1971). “Partition coefficients and their uses”. Chem Rev 71 (6): 525-616. • Wilkinson, Andrew M.; McNaught, Alan D. (1997). “Partition Coefficient”. Compendium of Chemical Terminology: IUPAC Recommendations. Oxford: Blackwell Science. doi:10.1351/goldbook. ISBN 0-86542-684-8. http://goldbook.iupac.org/P0447.html and • Sangster, James (1997). Octanol-Water Partition Coefficients: Fundamentals and Physical Chemistry, Vol. 2 of Wiley Series in Solution Chemistry. Chichester: John Wiley & Sons Ltd. pp. 178 pages. The RPI of retinol is approximatively 1. The RPI of retinal and retinol esters are well-known by the one skilled in the art and are similar to RPI of retinol. The net RPI of an emollient to the retinoid is the difference between the Emollient RPI and the Retinoid RPI. The net RPI of a composition to the retinoid is the difference between the Composition RPI and the Retinoid RPI. […]

The conditions of series [2]: RPI=log K, octanol/water; cited from earlier work.

As for `CCCCCCCCCCCCCC(C)C` [isohexadecane], the “net relative polarity index to retinol” value in series [1] amounted to 9.11. `CC1=C(/C=C/C(C)=C/C=C/C(C)=C/CO)C(C)(C)CCC1` [retinol]: in series [2], the “RPI (relative polarity index)” value is recorded as ~1. For the compound PPG15 stearyl ether, the “net relative polarity index to retinol” value in series [1] is “having the same polarity as retinol”.
